In patent US20100022514A1, “Heterocycle Compounds and Methods of Use Thereof” (NORVARTIS AG, priority 2006, published 2010) one finds IC50 and AC50 data, which are given here for 20 compounds.

The structures appear in SMILES notation.

For one assay, the target named is T1, HDAC-1 (Homo sapiens, UniProt Q13547).
T1 construct: made in house
Description: Deacetylase fluorescence assay (HDAC-1). Type of assay: biochemical. Particulars: read-out: HDAC-1 IC50. The gist of the method:
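Flag-tagged HDAC-1 immunopurified from overexpressing 293-derived cells was assayed in 25 mM Tris-HCl pH 8.0, 137 mM NaCl, 2.7 mM KCl, 1 mM MgCl2 with Fluor de Lys substrate (50 uM) and inhibitor. Deacetylation was read by fluorescence after trypsin developer containing TSA.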

The subject of assay [1] is p21 promoter (p21-luc) in H1299 cells. As to the kind of experiment: p21 promoter luciferase assay using stably transfected p21-luc in H1299 cells. The conditions noted are these: Homo sapiens, NCI-H1299. Type of assay: cell-based. The method in brief: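 H1299 cells stably carrying a p21 promoter–luciferase reporter, grown in RPMI 1640/10% FBS under Geneticin selection, seeded about 5000 cells/well and incubated overnight at 37 C. Compound exposure lasted one day. Cells were then lysed and luciferase luminescence measured.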

T1 sequence (Q13547 whole entry): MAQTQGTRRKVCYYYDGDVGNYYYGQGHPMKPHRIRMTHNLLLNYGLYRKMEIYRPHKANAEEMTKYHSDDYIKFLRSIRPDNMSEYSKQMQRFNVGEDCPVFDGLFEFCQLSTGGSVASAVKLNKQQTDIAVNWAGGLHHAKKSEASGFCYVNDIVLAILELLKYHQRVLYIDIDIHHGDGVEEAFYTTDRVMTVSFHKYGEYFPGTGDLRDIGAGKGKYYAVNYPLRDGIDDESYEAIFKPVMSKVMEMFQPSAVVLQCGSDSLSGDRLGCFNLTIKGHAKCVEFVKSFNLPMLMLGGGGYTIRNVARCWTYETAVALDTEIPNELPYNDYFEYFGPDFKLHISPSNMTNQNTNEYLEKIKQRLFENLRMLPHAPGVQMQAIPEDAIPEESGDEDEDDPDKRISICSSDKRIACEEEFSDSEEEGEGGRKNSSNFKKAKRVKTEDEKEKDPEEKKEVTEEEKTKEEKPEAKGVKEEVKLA

Take `Cc1nn2ccccc2c1CCN1CCc2ccc(/C=C/C(=O)NO)cc2CC1` [Example 71, (E)-N-Hydroxy-3-{3-[2-(2-methyl-pyrazolo[1,5-a]pyridin-3-yl)-ethyl]-2,3,4,5-tetrahydro-1H-benzo[d]azepin-7-yl}-acrylamide]: the half-maximal inhibitory concentration (IC50) (commonly the concentration at which inhibition is half-maximal) at HDAC-1 is 0.1 to 1 µM. Also, the AC50 (as a rule, the concentration giving half of the maximal activity seen) in assay [1] is more than 1 µM.
As for `CCc1nn2ccccc2c1CCN1CCc2cc(/C=C/C(=O)NO)ccc2C1` [Example 72, (E)-3-{2-[2-(2-Ethyl-pyrazolo[1,5-a]pyridin-3-yl)-ethyl]-1,2,3,4-tetrahydro-isoquinolin-6-yl}-N-hydroxy-acrylamide], the concentration for half-maximal inhibition (IC50) on HDAC-1 was less than 0.1 µM. Besides, in assay [1], the AC50 was 0.1 to 1 µM.
The corresponding values for `CCc1nn2ccccc2c1CCN1CCc2cc(CCC(=O)NO)ccc2C1` [Example 73, 3-{2-[2-(2-Ethyl-pyrazolo[1,5-a]pyridin-3-yl)-ethyl]-1,2,3,4-tetrahydro-isoquinolin-6-yl}-N-hydroxy-propionamide] are 0.1 to 1 µM and more than 1 µM.
The corresponding values for `CC(C)(C)c1[nH]c2ccccc2c1CCN1CCc2cc(/C=C/C(=O)NO)ccc2C1` [Example 74, (E)-3-{2-[2-(2-tert-Butyl-1H-indol-3-yl)-ethyl]-1,2,3,4-tetrahydro-isoquinolin-6-yl}-N-hydroxy-acrylamide] are less than 0.1 µM and 0.1 to 1 µM.
In the same order, the values of `O=C(/C=C/c1ccc2c(c1)CCN(CCc1ccccc1)C2)NO` [Example 75, (E)-N-Hydroxy-3-(2-phenethyl-1,2,3,4-tetrahydro-isoquinolin-6-yl)-acrylamide] are less than 0.1 µM and more than 1 µM.
`O=C(/C=C/c1ccc2c(c1)CCN(CCC1CCCCC1)C2)NO` [Example 76, (E)-3-[2-(2-Cyclohexyl-ethyl)-1,2,3,4-tetrahydro-isoquinolin-6-yl]-N-hydroxy-acrylamide]: the IC50 at HDAC-1 is less than 0.1 µM. Moreover, in assay [1], the AC50 is more than 1 µM.
The corresponding values for `O=C(/C=C/c1ccc2c(c1)CCN(Cc1ccccc1)C2)NO` [Example 77, (E)-3-(2-Benzyl-1,2,3,4-tetrahydro-isoquinolin-6-yl)-N-hydroxy-acrylamide] are 0.1 to 1 µM and more than 1 µM.
In the same order, the values of `Cc1noc(-c2ccccc2)c1CCN1CCc2cc(/C=C/C(=O)NO)ccc2C1` [Example 78, (E)-N-Hydroxy-3-{2-[2-(3-methyl-5-phenyl-isoxazol-4-yl)-ethyl]-1,2,3,4-tetrahydro-isoquinolin-6-yl}-acrylamide] are less than 0.1 µM and more than 1 µM.
In the same order, the values of `Cc1[nH]c2ccccc2c1CC(=O)N1CCc2cc(/C=C/C(=O)NO)ccc2C1` [Example 79, (E)-N-Hydroxy-3-{2-[2-(2-methyl-1H-indol-3-yl)-acetyl]-1,2,3,4-tetrahydro-isoquinolin-6-yl}-acrylamide] are less than 0.1 µM and more than 1 µM.
Regarding `Cc1[nH]c2ccccc2c1CCN1CCc2ccc(/C=C/C(=O)NO)cc2CC1` [Example 80, (E)-N-Hydroxy-3-{3-[2-(2-methyl-1H-indol-3-yl)-ethyl]-2,3,4,5-tetrahydro-1H-benzo[d]azepin-7-yl}-acrylamide], on HDAC-1, the IC50 was less than 0.1 µM. In assay [1], the AC50 was more than 1 µM.
In the same order, the values of `O=C(/C=C/c1ccc2c(c1)CCN(S(=O)(=O)c1ccccc1)C2)NO` [Example 81, (E)-3-(2-Benzenesulfonyl-1,2,3,4-tetrahydro-isoquinolin-6-yl)-N-hydroxy-acrylamide] are 0.1 to 1 µM and more than 1 µM.
The corresponding values for `COc1ccc(S(=O)(=O)N2CCc3cc(/C=C/C(=O)NO)ccc3C2)cc1` [Example 82, (E)-N-Hydroxy-3-[2-(4-methoxy-benzenesulfonyl)-1,2,3,4-tetrahydro-isoquinolin-6-yl]-acrylamide] are 0.1 to 1 µM and more than 1 µM.
The corresponding values for `COc1cccc(S(=O)(=O)N2CCc3cc(/C=C/C(=O)NO)ccc3C2)c1` [Example 83, (E)-N-Hydroxy-3-[2-(3-methoxy-benzenesulfonyl)-1,2,3,4-tetrahydro-isoquinolin-6-yl]-acrylamide] are 0.1 to 1 µM and more than 1 µM.
With `COc1cccc(S(=O)(=O)N2CCc3cc(CCC(=O)NO)ccc3C2)c1` [Example 84, N-Hydroxy-3-[2-(3-methoxy-benzenesulfonyl)-1,2,3,4-tetrahydro-isoquinolin-6-yl]-propionamide], on HDAC-1, the IC50 was 0.1 to 1 µM. Besides, in assay [1], the AC50 was more than 1 µM.
The corresponding values for `Cc1c(CCN2CCc3cc(/C=C/C(=O)NO)ccc3C2)cnn1-c1ccccc1` [Example 85, (E)-N-Hydroxy-3-{2-[2-(5-methyl-1-phenyl-1H-pyrazol-4-yl)-ethyl]-1,2,3,4-tetrahydro-isoquinolin-6-yl}-acrylamide] are less than 0.1 µM and more than 1 µM.
In the same order, the values of `CN(C)c1ccc(C(=O)N2CCc3cc(/C=C/C(=O)NO)ccc3C2)cc1` [Example 86, (E)-3-[2-(4-Dimethylamino-benzoyl)-1,2,3,4-tetrahydro-isoquinolin-6-yl]-N-hydroxy-acrylamide] are 0.1 to 1 µM and more than 1 µM.
For `CN(C)c1ccc(C(=O)N2CCc3cc(CCC(=O)NO)ccc3C2)cc1` [Example 87, 3-[2-(4-Dimethylamino-benzoyl)-1,2,3,4-tetrahydro-isoquinolin-6-yl]-N-hydroxy-propionamide], the IC50 on HDAC-1 was 0.1 to 1 µM. Further, in assay [1], the half-maximal activity concentration (AC50) was more than 1 µM.
The corresponding values for `COc1cccc(C(=O)N2CCc3cc(/C=C/C(=O)NO)ccc3C2)c1` [Example 88, (E)-N-Hydroxy-3-[2-(3-methoxy-benzoyl)-1,2,3,4-tetrahydro-isoquinolin-6-yl]-acrylamide] are 0.1 to 1 µM and more than 1 µM.
Regarding `COc1ccc(C(=O)N2CCc3cc(/C=C/C(=O)NO)ccc3C2)cc1` [Example 89, (E)-N-Hydroxy-3-[2-(4-methoxy-benzoyl)-1,2,3,4-tetrahydro-isoquinolin-6-yl]-acrylamide], the IC50 on HDAC-1 lay within 0.1 to 1 µM. This compound also showed an AC50 in assay [1] of more than 1 µM.
Consider `CN(C)c1ccc(C(=O)N2CCc3ccc(CCC(=O)NO)cc3C2)cc1` [Example 90, 3-[2-(4-Dimethylamino-benzoyl)-1,2,3,4-tetrahydro-isoquinolin-7-yl]-N-hydroxy-propionamide], for which the IC50 on HDAC-1 is 0.1 to 1 µM. The AC50 in assay [1] was more than 1 µM.
